Each structure is given as a SMILES string.

In this assay the target is T1, human CTPS1 (Homo sapiens, UniProt P17812).
T1 construct: purchased Proteros biostructures GmbH
T1 sequence (P17812 1-591): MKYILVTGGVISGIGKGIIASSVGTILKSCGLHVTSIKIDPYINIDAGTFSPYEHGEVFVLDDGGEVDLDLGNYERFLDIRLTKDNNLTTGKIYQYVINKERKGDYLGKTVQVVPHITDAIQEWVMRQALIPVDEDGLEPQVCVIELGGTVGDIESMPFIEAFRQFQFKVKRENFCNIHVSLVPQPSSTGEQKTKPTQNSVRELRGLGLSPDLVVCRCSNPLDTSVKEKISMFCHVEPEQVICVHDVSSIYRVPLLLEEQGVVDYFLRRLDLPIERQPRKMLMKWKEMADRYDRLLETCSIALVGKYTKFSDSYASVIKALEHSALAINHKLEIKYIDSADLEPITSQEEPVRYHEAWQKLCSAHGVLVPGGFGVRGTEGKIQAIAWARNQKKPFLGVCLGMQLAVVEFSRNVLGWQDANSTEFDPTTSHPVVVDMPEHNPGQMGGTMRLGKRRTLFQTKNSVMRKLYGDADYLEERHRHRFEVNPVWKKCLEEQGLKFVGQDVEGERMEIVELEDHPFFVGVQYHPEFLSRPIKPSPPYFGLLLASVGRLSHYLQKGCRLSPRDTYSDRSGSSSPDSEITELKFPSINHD
As to the kind of experiment: Human CTPS1 enzyme inhibition, ADP-Glo Max assay. The assay is classed as biochemical. The conditions noted are these: human full length CTPS1, read-out: CTPS1 (Human CTPS1 Enzyme Inhibition data grouped by potency range, IC50). On the procedure: Biological Example 1—Human CTPS1 Enzyme Inhibition
The enzyme inhibitory activities of compounds invented against the target of interest were determined using the ADP-Glo™ Max assay (Promega, UK). Assays for human CTPS1 were performed in 1× assay buffer containing 50 mM Tris, 10 mM MgCl2, 0.01% Tween-20, pH to 8.0 accordingly. Finally, immediately before use, L-cysteine was added to the 1× assay buffer to a final concentration of 2 mM. All reagents are from Sigma-Aldrich unless specified otherwise. Human full length active C-terminal FLAG-Hiss-tag CTPS1 (UniProtKB-P17812, CTPS[1-591]-[…]) was obtained from Proteros biostructures GmbH.
3× human CTPS1 protein was prepared in 1× assay buffer to the final working protein concentration required for the reaction. A 2 uL volume per well of 3× human CTPS1 protein was mixed with 2 uL per well of 3× test compound (compound prepared in 1× assay buffer to an appropriate final 3× compound concentration respective to the concentration response curve designed for the compounds under test) for 10 minutes at 25° C. The enzymatic reaction was then initiated by addition of a 2 uL per well volume of a pre-mixed substrate mix (UltraPure ATP from ADP-Glo™ Max kit (0.31 mM), GTP (0.034 mM), UTP (0.48 mM) and L-glutamine (0.186 mM)) and the mixture was incubated for an appropriate amount of time within the determined linear phase of the reaction at 25° C. under sealed plate conditions with constant agitation at 500 revolutions per minute (rpm). ADP-GIo™ Max reagent was added for 60 minutes (6 uL per well) and subsequently ADP-Glo™ Max development reagent was added for 60 minutes (12 uL per well) prior to signal detection in a microplate reader (EnVision® Multilabel Reader, Perkin Elmer). Following each reagent addition over the course of the assay, assay plates were pulse centrifuged for 30 seconds at 500 rpm.
In all cases, the enzyme converts ATP to ADP and the ADP-Glo™ Max reagent subsequently depletes any remaining endogenous ATP in the reaction system. The ADP-Glo™ Max detection reagent converts the ADP that has been enzymatically produced back into ATP and using ATP as a substrate together with luciferin for the enzyme luciferase, light is generated which produces a detectable luminescence. […] The percentage inhibition produced by each concentration of compound was calculated using the equation shown below: […]
Percentage inhibition was then plotted against compound concentration, and the 50% inhibitory concentration (IC50) was determined from the resultant concentration-response curve.
Turning to `Cc1cc(-c2cncc(C(F)(F)F)n2)ccc1C(=O)NC(C)(C)c1nc(NS(=O)(=O)C2CC2)sc1C` [Example R76, N-(2-(2-(cyclopropanesuIfonamido)-5-methylthiazol-4-yl)propan-2-yl)-2-methyl-4-(6-(trifluoromethyl)pyrazin-2-yl)benzamide], the IC50 was in the range of 100 to 1000 nM.

For the molecule `COc1cncc(-c2ccc(C(=O)NC(C)(C)c3csc(NS(=O)(=O)C4CC4)n3)cc2)c1` [Example R38, N-(2-(2-(cyclopropanesuIfonamido)thiazol-4-yl)propan-2-yl)-4-(5-methoxypyridin-3-yl)benzamide], the IC50 lay within 100 to 1000 nM.

As for `CC(C)(NC(=O)c1ccc(-c2cncc(Cl)n2)cc1)c1csc(NS(=O)(=O)C2CC2)n1` [Example R52, 4-(6-chloropyrazin-2-yl)-N-(2-(2-(cyclopropanesulfonamido)thiazol-4-yl)propan-2-yl)benzamide], the IC50 was less than 100 nM.

As for `CCOc1cncc(-c2ccc(C(=O)NC(C)(C)c3csc(NS(=O)(=O)C4CC4)n3)c(C(F)(F)F)c2)n1` [Example R47, N-(2-(2-(cyclopropanesuIfonamido)thiazol-4-yl)propan-2-yl)-4-(6-ethoxypyrazin-2-yl)-2-(trifluoromethyl)benzamide], the IC50 fell in the range of 100 to 1000 nM.

On to `COCCC(NC(=O)c1ccc(-c2cncc(OC(C)C)n2)cc1F)c1csc(NS(=O)(=O)C2CC2)n1` (centres unmarked) [Example R89, N-(1-(2-(cyclopropanesulfonamido)thiazol-4-yl)-3-methoxypropyl)-2-fluoro-4-(6-isopropoxypyrazin-2-yl)benzamide], for which the IC50 is less than 100 nM.

In the case of `CCC(CC)(NC(=O)c1ccc(-c2cncc(C(F)(F)F)c2)cc1)c1csc(NS(=O)(=O)C2CC2)n1` [Example R15, N-(3-(2-(cyclopropanesulfonamido)thiazol-4-yl)pentan-3-yl)-4-(5-(trifluoromethyl)pyridin-3-yl)benzamide], the IC50 was less than 100 nM.

On to `CCOc1cncc(-c2ccc(C(=O)NCc3csc(NS(=O)(=O)C4CC4)n3)c(F)c2)n1` [Example R11, N-((2-(cyclopropanesuIfonamido)thiazol-4-yl)methyl)-4-(6-ethoxypyrazin-2-yl)-2-fluorobenzamide], for which the IC50 is less than 100 nM.

`CCOc1cncc(-c2ccc(C(=O)NC(C)(C)c3nc(NS(=O)(=O)C4CC4)sc3C)c(F)c2)n1` [Example R74, N-(2-(2-(cyclopropanesulfonamido)-5-methylthiazol-4-yl)propan-2-yl)-4-(6-ethoxypyrazin-2-yl)-2-fluorobenzamide]: the half-inhibitory concentration (IC50) lay within 100 to 1000 nM.

Regarding `O=C(NCc1csc(NS(=O)(=O)C2CC2)n1)c1ccc(-c2ccccc2)cn1` [Example R8, N-((2-(cyclopropanesulfonamido)thiazol-4-yl)methyl)-5-phenylpicolinamide], the IC50 is 1000 to 10000 nM.

In the case of `CCOc1cncc(-c2ccc(C(=O)NC(CCOC)c3csc(NS(=O)(=O)C4CC4)n3)c(F)c2)n1` (centres unmarked) [Example R88, N-(1-(2-(cyclopropanesulfonamido)thiazol-4-yl)-3-methoxypropyl)-4-(6-ethoxypyrazin-2-yl)-2-fluorobenzamide], the IC50 lay in the range of 100 to 1000 nM.

As to `CC(C)(NC(=O)c1ccc(-c2cnccn2)cc1)c1csc(NS(=O)(=O)C2CC2)n1` [Example R58, N-(2-(2-(cyclopropanesulfonamido)thiazol-4-yl)propan-2-yl)-4-(pyrazin-2-yl)benzamide], the IC50 was in the range of 100 to 1000 nM.

Regarding `COc1cc(-c2cncc(C(F)(F)F)c2)ccc1C(=O)NC(C)(C)c1csc(NS(=O)(=O)C2CC2)n1` [Example R32], the IC50 lay in the range of 100 to 1000 nM.

With `O=C(NCc1csc(NS(=O)(=O)C2CC2)n1)c1ccc(-c2cccnc2)cc1` [Example R1, N-((2-(cyclopropanesulfonamido)thiazol-4-yl)methyl)-4-(pyridin-3-yl)benzamide], the IC50 was 100 to 1000 nM.

`CCc1cncc(-c2ccc(C(=O)NC(C)(C)c3csc(NS(=O)(=O)C4CC4)n3)c(F)c2)n1` [Example R41, N-(2-(2-(cyclopropanesuIfonamido)thiazol-4-yl)propan-2-yl)-4-(6-ethylpyrazin-2-yl)-2-fluorobenzamide]: the IC50 is 100 to 1000 nM.

As for `CC(C)(NC(=O)c1ccc(-c2cncc(Cl)c2)cc1)c1csc(NS(=O)(=O)C2CC2)n1` [Example R28], the IC50 was less than 100 nM.

Regarding `CC(C)(NC(=O)c1ccc(-c2cncc(F)c2)cc1)c1csc(NS(=O)(=O)C2CC2)n1` [Example R36, N-(2-(2-(cyclopropanesulfonamido)thiazol-4-yl)propan-2-yl)-4-(5-fluoropyridin-3-yl)benzamide], the IC50 is 100 to 1000 nM.

Regarding `Cc1cc(-c2cncc(C(F)(F)F)n2)ccc1C(=O)NC(C)(C)c1nc(NS(=O)(=O)C2CC2)sc1Cl` [Example R77, N-(2-(5-chloro-2-(cyclopropanesulfonamido)thiazol-4-yl)propan-2-yl)-2-methyl-4-(6-(trifluoromethyl)pyrazin-2-yl)benzamide], the IC50 is 1000 to 10000 nM.

On to `CC(C)Oc1cncc(-c2ccc(C(=O)NCc3csc(NS(=O)(=O)C4CC4)n3)cc2)n1` [Example R13, N-((2-(cyclopropanesulfonamido)thiazol-4-yl)methyl)-4-(6-isopropoxypyrazin-2-yl)benzamide], for which the IC50 was less than 100 nM.

For the molecule `COc1cncc(-c2ccc(C(=O)NC(C)(C)c3csc(NS(=O)(=O)C4CC4)n3)cc2)n1` [Example R54, N-(2-(2-(cyclopropanesulfonamido)thiazol-4-yl)propan-2-yl)-4-(6-methoxypyrazin-2-yl)benzamide], the IC50 is less than 100 nM.

Turning to `CCC(NC(=O)c1ccc(-c2cncc(F)c2)cc1)c1csc(NS(=O)(=O)C2CC2)n1` (single isomer, unassigned) [Example R68, N-(1-(2-(cyclopropanesulfonamido)thiazol-4-yl)propyl)-4-(5-fluoropyridin-3-yl)benzamide], the IC50 was in the range of 1000 to 10000 nM.

For `O=C(NC1(c2csc(NS(=O)(=O)C3CC3)n2)CC1)c1ccc(-c2cccnc2)cc1` [Example R81, N-(1-(2-(cyclopropanesulfonamido)thiazol-4-yl)cyclopropyl)-4-(pyridin-3-yl)benzamide], the IC50 lay in the range of 100 to 1000 nM.

Consider `COCCC(NC(=O)c1ccc(-c2cncc(F)c2)cc1)c1csc(NS(=O)(=O)C2CC2)n1` (centres unmarked) [Example R85, N-(1-(2-(cyclopropanesulfonamido)thiazol-4-yl)-3-methoxypropyl)-4-(5-fluoropyridin-3-yl)benzamide], for which the IC50 fell in the range of 100 to 1000 nM.

In the case of `CC(C)(NC(=O)c1ccc(-c2cccnc2)cc1)c1csc(NS(=O)(=O)C2CC2)n1` [Example R39, N-(2-(2-(cyclopropanesulfonamido)thiazol-4-yl)propan-2-yl)-4-(pyridin-3-yl)benzamide], the IC50 lay in the range of 100 to 1000 nM.

`CCOc1cncc(-c2ccc(C(=O)NC(C)(C)c3nc(NS(=O)(=O)C4CC4)sc3Cl)nc2)n1` [Example R73, N-(2-(5-chloro-2-(cyclopropanesulfonamido)thiazol-4-yl)propan-2-yl)-5-(6-ethoxypyrazin-2-yl)picolinamide]: the IC50 was 1000 to 10000 nM.

Take `CCC(CC)(NC(=O)c1ccc(-c2cncc(F)c2)cc1)c1csc(NS(=O)(=O)C2CC2)n1` [Example R16, N-(3-(2-(cyclopropanesulfonamido)thiazol-4-yl)pentan-3-yl)-4-(5-fluoropyridin-3-yl)benzamide]: the IC50 is 100 to 1000 nM.

With `CCC(NC(=O)c1ccc(-c2cncc(OC(C)C)n2)cc1F)c1csc(NS(=O)(=O)C2CC2)n1` (racemic) [Example R64, N-(1-(2-(cyclopropanesulfonamido)thiazol-4-yl)propyl)-2-fluoro-4-(6-isopropoxypyrazin-2-yl)benzamide], the IC50 is 100 to 1000 nM.

In general, IC50 refers to the concentration at which inhibition is half-maximal.

The values above are taken from patent US11505547B2, “Compounds” (STEP PHARMA S.A.S., priority 2017, dated 2022).
